Data as given in PubChem BioAssay AID179 (DTP/NCI, 2004).
Several values for one entry are separate records, joined by “and”; a condition that tells them apart may be missing. Equal values may be shown once. Activity calls are given as the source filed them.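 The calls were made as follows: active = compounds giving half or more protection of infected cells from virus-caused growth loss, again on retest; inactive = the rest.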 Where a SMILES comes first, the peptide text is derived from it. The star is where a group is joined. Boc = CC(C)(C)OC(=O)*

System: CEM cells HIV-1 protection, formazan growth assay
Assay: NCI AIDS Antiviral Assay
Settings: for IC50: measured here: growth of uninfected CEM cells
In short: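 Category rules: moderately active means at least 50% protection on retest, and confirmed active means 100% protection reproducibly. The underlying data came from a formazan growth assay in HIV-1-infected CEM cells.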

Structure (SMILES) | outcome | EC50 | IC50
CC1(C)C(c2ccccc2)=NN(O)c2ccccc21 | inactive | – | –
N[C@H]1c2ccsc2C(=O)[C@H]1O | – | > 1 µM | > 1 µM
c1ccc(C2SCc3nc4cc5ccccc5cc4n32)cc1 (centres undefined) | – | > 200 µM | > 200 µM
O=C(/C(=C/c1ccc(Cl)cc1)c1ccccc1)c1ccccc1 | – | > 8.51 µM | > 8.51 µM
C/C(=C1/N=C(c2cc([N+](=O)[O-])ccc2Cl)N(c2cccc(C)c2)C1=O)c1cc2ccccc2oc1=O | – | > 7.59 µM | > 7.59 µM
CSc1ncnc2c1ncn2CCC#N | – | > 200 µM | > 200 µM
OC(C1CCC=NN1C(O)(C(F)(F)F)C(F)(F)F)(C(F)(F)F)C(F)(F)F (centres undefined) | – | > 200 µM | 26.9 µM
O=C1c2c(nc3ccccc3c2-c2ccccc2)CN1Nc1ccccn1 | – | > 141 µM | > 141 µM
NC(=O)CC(NC(=O)OCc1ccccc1)C(=O)NC(Cc1ccccc1)C(=O)NC(Cc1ccccc1)NC(=O)C(Cc1c[nH]c2ccccc12)C(=O)O (centres undefined) | – | > 50.1 µM | > 50.1 µM
CC1=C(C#N)c2nc3ccccc3n2C(=O)C1(C)CCO (centres undefined) | – | > 200 µM | > 200 µM
COc1ccc2c(c1)CCN1CCCc3ccc(OC)cc3C21 (centres undefined) | – | > 200 µM | 51.3 µM
COc1ccc(N2C(=O)C3c4[nH]c5ccccc5c4C4CCCCCCCCCCC4C3C2=O)cc1 (centres undefined) | – | > 5.62 µM | > 5.62 µM
CC1(C)OCC(C(O)C2OC(C)(C)OC2/C=N\O)O1 (centres undefined) | – | > 912 µM | > 912 µM
O=C1NC(=O)c2ccc([N+](=O)[O-])c3cccc1c23 | – | > 0.871 µM | 0.1 µM
COC(=O)C1=C(O)C(C(=O)OC)[C@@]2(O)[C@@H](C(=O)OC)[C@H](C)C[C@@H]1[C@@H]2C(=O)OC (some centres undefined) | – | > 200 µM | 39.8 µM
Oc1ccc2c(c1)-c1c(c3ccccc3n1CCN1CCOCC1)CC2 | – | > 200 µM | 32.4 µM
CCCCCCCCCCCCCCCCCCCCCCCCCCCCCC=C(c1cc(Cl)c(OC)c(C(=O)OC)c1)c1cc(Cl)c(OC)c(C(=O)OC)c1 | – | > 2.24 µM | > 2.24 µM
CCN1CCC(O)(c2ccc(OC)cc2)C(C(=O)c2ccc(OC)cc2)C1 (centres undefined) | – | > 550 µM | 14.5 µM
O=C1OC2CS(=O)CC2O1 (centres undefined) | – | > 1550 µM | > 1550 µM
CC(=O)C(C=NCCN=CC(C(C)=O)C(C)=O)C(C)=O.[Ni] | – | > 200 µM | > 200 µM
CC(C)(C)C1CC[C@H]2c3c([nH]c4ccccc34)[C@H]3C(=O)N(c4ccc(F)cc4)C(=O)[C@H]3[C@H]2C1 (some centres undefined) | – | > 11.7 µM | > 11.7 µM
Clc1ccc(Cc2nc3ccccc3s2)c(Cl)c1 | – | > 33.9 µM | 26.3 µM
CC1(C)COC(c2cccc(C3=NC(C)(C)CO3)c2Br)=N1 | – | > 200 µM | 151 µM

Structure (SMILES) | outcome | EC50 | IC50
CC[C@]1(Cc2ccc(OC)c(OC)c2)C=[N+]([O-])O[C@H](OC2CCCC2(c2ccccc2)c2ccccc2)[C@@H]1OC(C)=O (some centres undefined) | – | > 200 µM | 3.8 µM
C/C(CCn1[nH]c(=O)ccc1=O)=N\NC(=O)C(=O)NN | – | > 1.95 µM | > 1.95 µM
OCC(O)C(O)C(O)c1nc2ccccc2s1 (centres undefined) | – | > 977 µM | 120 µM
CCOC(=O)C(=O)Nc1cccc(C)c1C | – | > 813 µM | > 813 µM
CC1(C)OC(=O)C(=Cc2ccc(Br)cc2)C(=O)O1 | – | > 417 µM | 257 µM
COc1cc([C@@H]2c3cc4c(cc3C(N)C3COC(=O)[C@@H]32)OCO4)cc(OC)c1O (some centres undefined) | inactive | – | –
COc1nc(C(=O)O)c(Cl)c(OC)c1Cl | – | > 513 µM | > 513 µM
O=S(=O)(Nc1nnc2c3ccccc3ccn12)c1ccc(F)cc1S | – | 214 µM | 251 µM
CCOC(=O)c1ccc(CS(=O)(=O)c2ccc([N+](=O)[O-])cc2)cc1 | – | > 53.7 µM | > 53.7 µM
CCOP(=S)(NN=C1CCCCC1)OCC | – | > 200 µM | 112 µM
O=c1[nH]c(=O)n(C2C=CC(CO)O2)cc1F (centres undefined) | – | > 200 µM | > 200 µM
CC(C)c1cc(C(C)C)c(B(c2ccccc2)c2ccccc2)c(C(C)C)c1Br | – | > 200 µM | > 200 µM
CC1(C)CCC[C@@]2(C)C1CC[C@@]1(CO1)[C@@H]2/C=C\C(C=O)CC=O (some centres undefined) | inactive | – | –
CC(C)=NNC=N/C(C#N)=C(\N)C#N | – | > 200 µM | > 200 µM
Clc1cc(Cl)c2c(Cl)cc(Cl)c3c2c1N=S=N3 | inactive | – | –
CC1=C2CC[C@@]3(C)C(=CCC3O)C2(C)CCC1=O (some centres undefined) | inactive | – | –
CCOC(=O)c1c(C(=O)OC)nc2n1-c1ccccc1OC2 | – | > 832 µM | 64.6 µM
CCO/C=N/C1=C(C#N)SC2=N/C(=C\c3ccccc3)C(=O)N21 | – | > 200 µM | 77.6 µM
Cn1c(=O)cn[nH]c1=O | – | > 200 µM | > 200 µM
CN(C)P1(=O)OCC(C(C)(C)C)CN1c1ccccc1 (centres undefined) | – | > 200 µM | > 200 µM
O=C1c2c(O)cccc2Cc2cc(CO)cc(O)c21 | – | > 200 µM | 0.933 µM
CCCCNc1cc(Nc2ccc(Br)cc2)nc(N)n1 | – | > 2 µM | 1.07 µM
CN1CC2(CCCCC2)C(O)C12C=CCCC2 (centres undefined) | – | > 380 µM | > 380 µM

Structure (SMILES) | outcome | EC50 | IC50
O=C1CC2(CCC(O)(c3ccc4ccccc4c3)C(C(=O)c3ccc4ccccc4c3)C2)C(=O)c2ccccc2N1 (centres undefined) | – | > 200 µM | 83.2 µM
CCOC(=O)C(=O)Nc1nc2c(OCC)cccc2s1 | inactive | – | –
CC(C)(C)[C@H]1CO[C@]2(C)[C@@H]3C[C@@H]3C(=O)N12 | inactive | – | –
CCOC(=O)/C(=C/c1ccc(C)cc1)C(=O)c1ccccc1 | – | > 24.5 µM | 15.1 µM
C=C1C(=O)OC2CC(C)C(C(CC(C)=O)OC(C)=O)=CCC12 (centres undefined) | – | > 324 µM | 1.58 µM
NC(F)(Cc1ccccc1)C(=O)O (centres undefined) | – | > 200 µM | > 200 µM
Nc1ccc2c(c1)C(=P(c1ccccc1)(c1ccccc1)c1ccccc1)c1ccccc1-2 | – | > 200 µM | 10.7 µM
C/C=C(\CCCCN1C(=O)CCC1O)[Si](C)(C)C (centres undefined) | inactive | – | –
CC(C)(C)OC(=O)NC(Cc1ccc(O)cc1)C(=O)N1CCCC1C(=O)O (stereo not drawn) (Boc-Tyr-Pro-OH; configuration not given here) | – | > 661 µM | 269 µM
O=C(/C=C/c1ccc(O)cc1)OCC1OC(Oc2cc(O)c3c(c2)OC(c2ccc(O)cc2)CC3=O)C(O)C(O)C1O (centres undefined) | – | > 51.3 µM | 27.5 µM
CC(=O)OC1CC2OC2(C)C2[C@H](O)C34O[C@@]3(C)C(=O)O[C@H]4/C=C(/C)C[C@H](OC(C)=O)[C@H](OC(C)=O)[C@@]12C (some centres undefined) | – | > 123 µM | 75.9 µM
Nc1ccc2cc3ccc(N)cc3nc2c1 | – | > 200 µM | 1.12 µM and 0.692 µM
Cc1nc(C(N)=S)sc1C(/C=C/c1ccc(Cl)c(Cl)c1)=N/NC(C)(C)C | – | > 117 µM | > 117 µM
CCCCCCCCCCCCOP(=O)(O)OCC(N)C(=O)O (centres undefined) | – | > 200 µM | 10.2 µM
CC1(C)OC(C(C)(C)O)C(C(C)(C)O)O1 (centres undefined) | – | > 200 µM | > 200 µM
CCN(CC)CCn1c2ccccc2c(=O)c2c(O)ccc(O)c21 | inactive | – | –
C/C(CC(=O)Nc1ccccc1C)=N/NS(=O)(=O)c1ccc(C)cc1 | – | > 363 µM | > 363 µM
O=C1C(C=NC(=S)c2ccccc2)=C(O)c2ccccc21 | – | > 200 µM | 166 µM
Cc1cn(C2CC(N=[N+]=[N-])C(COC(=O)CCCCCCCCCCOc3ccc(I)cc3)O2)c(=O)[nH]c1=O (centres undefined) | – | 0.117 µM | 17.8 µM
COc1ccc(CCn2c(=O)c3ccccc3n(C)c2=O)cc1 | – | > 83.2 µM | 32.4 µM
CC1OC(OC2C(Oc3cc(O)c4c(=O)cc(-c5ccc(O)cc5)oc4c3)OC(CO)C(O)C2O)C(O)C(O)C1O (centres undefined) | – | > 427 µM | > 427 µM
CC(=O)Nc1c(C#N)c2n(c1C(=O)Nc1ccc(C)cc1)CCC2 | – | > 100 µM | > 100 µM
Brc1cc2[nH]c(-c3ccccc3)c(Br)c2c(Br)c1Br | – | > 200 µM | 5.13 µM

Structure (SMILES) | outcome | EC50 | IC50
CC1OC23CCCCC2C(C#N)(C#N)C1(C#N)C(=N)O3 (centres undefined) | – | > 200 µM | 4.27 µM
CCOC(=O)[C@H]1[C@@H]2CCCC[C@@]23C(Cl)(Cl)[C@@]32C[C@]1(C(=O)OCC)CCC(=O)O2 | inactive | – | –
CCOC(=O)c1cc(C2CCN(Cc3ccccc3)C2=O)c(C(=O)/C=C(/C)N)[nH]1 (centres undefined) | – | > 200 µM | 158 µM
CCOC(=O)C(NC(=O)c1[nH]cnc1/N=N/N(C)C)C(C)C (centres undefined) | – | > 23.4 µM | > 23.4 µM
CCOC1(OCC)CC2C(=O)CCCC21OC(C)=O (centres undefined) | – | > 229 µM | 132 µM
O=C(CCl)N1CCN(c2ccccc2)CC1 | – | > 1050 µM | 1.2 µM
Nc1ccn(C2CCC(CO)O2)c(=S)n1 (centres undefined) | – | > 200 µM | > 200 µM
O=C(O)CCN(CCCN(CCC(=O)O)CCC(=O)O)CCC(=O)O | – | > 575 µM | 8.13 µM
CN(C)CCNc1c2ccccc2nc2cccc([N+](=O)[O-])c12 | – | > 2 µM | 0.024 µM
COC(=O)N1C=CC2ON=C(OC)C2C1c1ccccc1 (centres undefined) | – | > 46.8 µM | > 46.8 µM
C=C(C)S(=O)(=O)c1ccccc1 | inactive | – | –
CCOC(=O)Nc1cc2c(c(N)n1)N=C(c1ccc(OC)cc1)CN2 | – | > 11 µM | 0.224 µM
CCOC(=O)c1cc2c3c(c1)C(=O)CCN3CCC2=O | inactive | – | –
N#CC1(C#N)C(C#N)(C#N)C12CCCCC2 | – | > 20 µM | 10 µM
CCOP(=O)(OCC)C(=O)C1CC1 | – | > 1200 µM | 832 µM
CNC(=O)c1cn(C2OC(CO)C(O)C2O)c2ncnc(N)c12 (centres undefined) | – | > 2 µM | 1.2 µM
C=CCN(CCN(CC=C)S(=O)(=O)c1ccc(C)cc1)S(=O)(=O)c1ccc(C)cc1 | – | > 22.4 µM | > 22.4 µM
CC(C)(SSC(C)(C)C(N)C(=O)O)C(N)C(=O)O (centres undefined) | – | > 427 µM | > 427 µM
O=C(O)C1(Cl)C2(Cl)C(Cl)=CC3(Cl)C(Cl)(C(=O)O)C2(Cl)C31Cl (centres undefined) | – | > 200 µM | > 200 µM
O=C1OC(=O)C2=C1CCc1ccccc12 | inactive | – | –
O=C1CC2(CCCC2)C(=O)N1c1cccc([N+](=O)[O-])c1 | – | > 347 µM | 275 µM
Oc1ccc([S+](c2ccc(O)cc2)c2ccc(O)cc2)cc1 | – | > 145 µM | > 145 µM
